Results on 35 substances are retold here after US20160129089A1, “COMBINATION THERAPY” (ANTISENSE THERAPEUTICS LTD, priority 2013, published 2016).

For the series, the system named is human growth hormone receptor mRNA. The series is described as follows: Inhibition of human growth hormone receptor mRNA levels by antisense oligonucleotides, quantitative real-time PCR, MCF7 cells. As to conditions: averages from three experiments. The series is classed as cell-based. The arrangement: concentration or dose not given beside the values. The method, then:
“Target site” indicates the first (5′-most) nucleotide number on the particular target sequence to which the oligonucleotide binds. “% Inhib” indicates the inhibitory effect on hGHR mRNA levels by quantitative real-time PCR. Data are averages from three experiments in which MCF7 cells were treated with the antisense oligonucleotides.
All oligonucelotides in Table 1 are chimeric oligonucleotides (“gapmers”), 20 nucleotides in length, composed of a central “gap” region consisting of ten 2′-deoxynucleotides, which is flanked on both sides (5′ and 3′ directions) by five-nucleotide “wings”. The wings are composed of 2′-methoxyethyl (2′-MOE) nucleotides. The internucleoside (backbone) linkages are phosphorothioate (P═S) throughout the oligonucleotide. All uracils are 5-methyluracils (^MeU). Typically, the oligonucleotide is synthesized using 2-methoxyethyl modified thymidines not 5-methyluracils. All pyrimidines are C5 methylated (i.e., U, T, C are C5 methylated).

e = 2'-O-(2-methoxyethyl) (MOE); d = 2'-deoxy (DNA)

As for “227453 (antisense CATAATCAGGGCATTCTTTC; sugars from the 5' end e5 d10 e5, all phosphorothioate, methylation of C not given here) [compound 227453]”, the “% INHIB (inhibitory effect on hGHR mRNA levels)” value (from here on “% INHIB”) is reported as 52%.

On to “227464 (antisense CCTTTAATCTTTGGAACTGG; sugars from the 5' end e5 d10 e5, all phosphorothioate, methylation of C not given here) [compound 227464]”, for which the “% INHIB” value amounted to 58%. The result for “227468 (antisense TCATCAATATCTAGCTCAAT; sugars from the 5' end e5 d10 e5, all phosphorothioate, methylation of C not given here) [compound 227468]” reads 62%. The result for “227469 (antisense CTTAGAAGTCTGTCTGTGTC; sugars from the 5' end e5 d10 e5, all phosphorothioate, methylation of C not given here) [compound 227469]” reads 63%; that for “227475 (antisense CCTGCTGGTGTAATGTCGCT; sugars from the 5' end e5 d10 e5, all phosphorothioate, methylation of C not given here) [compound 227475]”, 68%. The value for “227480 (antisense ATGTAAATGTCCTCTTGGTT; sugars from the 5' end e5 d10 e5, all phosphorothioate, methylation of C not given here) [compound 227480]” was 66%.

On to “227481 (antisense TGGTGATGTAAATGTCCTCT; sugars from the 5' end e5 d10 e5, all phosphorothioate, methylation of C not given here) [compound 227481]”, for which the “% INHIB” value was 45%. Take “227482 (antisense TTCTGTGGTGATGTAAATGT; sugars from the 5' end e5 d10 e5, all phosphorothioate, methylation of C not given here) [compound 227482]”: the “% INHIB” value is recorded as 53%. The value for “227483 (antisense AGGCTTTCTGTGGTGATGTA; sugars from the 5' end e5 d10 e5, all phosphorothioate, methylation of C not given here) [compound 227483]” was 75%. The result for “227484 (antisense TGGTAAGGCTTTCTGTGGTG; sugars from the 5' end e5 d10 e5, all phosphorothioate, methylation of C not given here) [compound 227484]” reads 63%. For “227488 (antisense AGTTGGTCTGTGCTCACATA; sugars from the 5' end e5 d10 e5, all phosphorothioate, methylation of C not given here) [compound 227488]”, the “% INHIB” value is 86%. The result for “227489 (antisense TGTTCAGTTGGTCTGTGCTC; sugars from the 5' end e5 d10 e5, all phosphorothioate, methylation of C not given here) [compound 227489]” reads 75%.

On to “227490 (antisense GCATGATTTTGTTCAGTTGG; sugars from the 5' end e5 d10 e5, all phosphorothioate, methylation of C not given here) [compound 227490]”, for which the “% INHIB” value was found to be 67%. The value for “227499 (antisense TATAAAAGGGCTTTGTAAAA; sugars from the 5' end e5 d10 e5, all phosphorothioate, methylation of C not given here) [compound 227499]” was 14%; that for “227500 (antisense CATAGCAGCAAAGTAGCAGA; sugars from the 5' end e5 d10 e5, all phosphorothioate, methylation of C not given here) [compound 227500]” was 69%; that for “227501 (antisense GCTATTTTTGGCTATAGAAA; sugars from the 5' end e5 d10 e5, all phosphorothioate, methylation of C not given here) [compound 227501]” was 64%. The result for “227502 (antisense GATTGAGGTATTTAGCTATT; sugars from the 5' end e5 d10 e5, all phosphorothioate, methylation of C not given here) [compound 227502]” reads 56%; that for “272302 (antisense GATCCATACCTGTAGGACCT; sugars from the 5' end e5 d10 e5, all phosphorothioate, methylation of C not given here) [compound 272302]”, 60%; that for “272303 (antisense CCAGAGATCCATACCTGTAG; sugars from the 5' end e5 d10 e5, all phosphorothioate, methylation of C not given here) [compound 272303]”, 55%. The result for “272304 (antisense TGCTAAGGATAGCTGCTGTG; sugars from the 5' end e5 d10 e5, all phosphorothioate, methylation of C not given here) [compound 272304]” reads 48%; that for “272305 (antisense TTGTCTTTAGGCCTGGATTA; sugars from the 5' end e5 d10 e5, all phosphorothioate, methylation of C not given here) [compound 272305]”, 68%; that for “272306 (antisense TTAGAAGAATTTGTCTTTAG; sugars from the 5' end e5 d10 e5, all phosphorothioate, methylation of C not given here) [compound 272306]”, 13%. Turning to “272307 (antisense GTGAATTTAGGCTCCTTAGA; sugars from the 5' end e5 d10 e5, all phosphorothioate, methylation of C not given here) [compound 272307]”, the “% INHIB” value worked out at 55%. The result for “272308 (antisense GCTGTATGGGTCCTAGGTTC; sugars from the 5' end e5 d10 e5, all phosphorothioate, methylation of C not given here) [compound 272308]” reads 57%; that for “272309 (antisense TAACAGCTGTTTTCCCCAGC; sugars from the 5' end e5 d10 e5, all phosphorothioate, methylation of C not given here) [compound 272309]”, 85%. The result for “272310 (antisense TTTCATCCACTGTACCACCA; sugars from the 5' end e5 d10 e5, all phosphorothioate, methylation of C not given here) [compound 272310]” reads 76%; that for “272311 (antisense TTGCACTATTTCATCAACAG; sugars from the 5' end e5 d10 e5, all phosphorothioate, methylation of C not given here) [compound 272311]”, 47%. The result for “272312 (antisense GGGTGGATCTGGTTGCACTA; sugars from the 5' end e5 d10 e5, all phosphorothioate, methylation of C not given here) [compound 272312]” reads 57%; that for “272313 (antisense ATTGCGTGGTGCTTCCCATC; sugars from the 5' end e5 d10 e5, all phosphorothioate, methylation of C not given here) [compound 272313]”, 77%; that for “272314 (antisense TAGGGTCCATCATTTTCCAT; sugars from the 5' end e5 d10 e5, all phosphorothioate, methylation of C not given here) [compound 272314]”, 56%. With “272315 (antisense CAATGAGTACACTGGAACTG; sugars from the 5' end e5 d10 e5, all phosphorothioate, methylation of C not given here) [compound 272315]”, the “% INHIB” value was determined as 53%.

On to “272316 (antisense AACTCGCCATAATTTCCAGA; sugars from the 5' end e5 d10 e5, all phosphorothioate, methylation of C not given here) [compound 272316]”, for which the “% INHIB” value is listed as 64%.

On to “272317 (antisense AGCCCAAATATTCCAAAGAT; sugars from the 5' end e5 d10 e5, all phosphorothioate, methylation of C not given here) [compound 272317]”, for which the “% INHIB” value turned out to be 65%. The result for “272318 (antisense TCAGCATTTTAATCCTTTGC; sugars from the 5' end e5 d10 e5, all phosphorothioate, methylation of C not given here) [compound 272318]” reads 55%. Consider “272319 (antisense ATTTTCCTTCCTTGAGGAGA; sugars from the 5' end e5 d10 e5, all phosphorothioate, methylation of C not given here) [compound 272319]”, for which the “% INHIB” value is reported as 67%.
